From US20090143318A1, “DEGRANULATION INHIBITOR” (Tropical Technology Center Ltd., priority 2006, published 2009)
Counter-ions that a name gives are not always drawn. Like-named read-outs stand apart in the source and are kept apart here.

System: rat basophilic leukemia cells (RBL-2H3)
Assay: Degranulation inhibitory activity: hexosaminidase release-inhibitory activity test
Format: cell-based
Details: for IC50 value (inhibition of release of hexosaminidase) / IC50: IgE-sensitized RBL-2H3 cells, DNP-BSA antigen-induced degranulation; for Activity compared with the positive control ketotifen fumarate: statement in words, hexosaminidase release, RBL-2H3
Experimental: With regard to the measurement of degranulation inhibitory activity, a test for hexosaminidase release-inhibitory activity was carried out by referring to Non-Patent Document 1 and Non-Patent Document 2 (Kataoka M., Takagaki Y., Shoyakugaku Zasshi, 46(1), 25-29, 1992). Firstly, rat basophilic leukemia cells (RBL-2H3) were made into 5×10^5 cells/mL and seeded on a 96-well plate and anti-DNP-BSA mouse IgE antibody was added thereto so as to make its final concentration 0.29 μg/mL and incubated with 5% CO2 at 37° C. overnight in an incubator to sensitize the cells. Then the cells were washed with a phosphate-buffered physiological saline solution twice and 130 μL of a releasing mixture (comprising 116.9 mM of NaCl, 5.4 mM of KCl, 0.8 mM of MgSO4, 2.0 mM of CaCl2, 5.6 mM of glucose, 0.1% of bovine serum albumin and 25 mM of HEPES) was added thereto.
Then, Compounds (A) and (C) obtained in the invention were first dissolved in 25% ethanol, and then Compound (A) was diluted with 1% ethanol to achieve the final concentration in 7 serial dilutions in steps of from 1 μg/mL to 5 ng/mL; and Compound (C) was diluted with 1% ethanol to achieve the final concentration by 7 serial dilutions in steps of from 10 μg/mL to 50 ng/mL. Compound (B) was first dissolved in water, and then diluted with 1% ethanol to achieve the final concentration by 7 serial dilutions in steps of from 50 μg/mL to 50 ng/mL. Compound (D) was diluted with 4% ethanol-20 mM phosphate buffer to achieve the final concentration by 4 serial dilutions in steps of 2.6 μg/mL to 165 ng/mL. 10 μL portion samples of all concentrations of Compounds (A), (B), (C) and (D) were added to the cells, respectively, and allowed to stand at 37° C. under 5% CO2 in an incubator for 10 minutes. Then 10 μL of an antigen DNP-BSA (2 μg/mL) was added, the mixture was allowed to stand in an incubator for 1 hour to induce degranulation, and centrifuged to collect the supernatant. 15 μL of a 5 mM hexosaminidase substrate solution (p-nitrophenyl-β-D-glucosaminide) was added to 45 μL of the supernatant liquid, the mixture was made to react at 37° C. for 3 hours and 180 μL of a solution for stopping the reaction (0.1M NaHCO3/Na2CO3; pH 10.0) was added thereto. After completion of the reaction, absorbance at 415 nm was measured and the hexosaminidase release-inhibitory activity was calculated by the following formula. Meanwhile, a positive control (200 μM of ketotifen fumarate) and a negative control corresponding to the final solvent concentration for the test substance were prepared.
Hexosaminidase release-inhibitory Activity(%)=[1−(S−B/C−b)]×100
S: absorbance of the test substance upon addition of cells
B: absorbance upon addition of the test substance in the absence of the cells
C: absorbance of the negative control
b: absorbance in the absence of cells

[1] = molar concentration, read-out: IC50 value (inhibition of release of hexosaminidase), molar value in brackets
[2] = Rattus norvegicus, mass concentration, read-out: IC50 value (inhibition of release of hexosaminidase)
[3] = Rattus norvegicus, molar concentration, read-out: IC50 value (inhibition of release of hexosaminidase), molar value in brackets

SMILES | IC50 value (inhibition of release of hexosaminidase) (mass concentration) [µg/mL] | IC50 [1] [µM] | Activity compared with the positive control ketotifen fumarate | IC50 [2] [µg/mL] | IC50 [3] [µM]
COc1c(O)cc2c(=O)oc3c(O)c(OC4O[C@H](CO)[C@@H](O)[C@H](O)[C@H]4O)cc4c(=O)oc1c2c34 (stereo partly shown) [Compound (B), 3-O-methylellagic acid 4′-glucoside] | 14.83 | 31 | higher activity |  | 
O=c1oc2c3c(cc4c(=O)oc5c(O)c(O)cc1c5c24)OCO3 [Compound (D), 3,4-dioxoloellagic acid] |  |  | higher activity | 1.07 | 3
CN1CCC(=C2c3ccccc3CC(=O)c3sccc32)CC1 [Ketotifen fumarate, ketotifen fumarate, reference compound] |  |  |  | 71.8 | 169
O=c1oc2c3c(cc4c(=O)oc5c(O)c(OC6O[C@H](CO)[C@@H](O)[C@H](O)[C@H]6O)cc1c5c24)OCO3 (stereo partly shown) [Compound (A), 3,4-dioxoloellagic acid 4′-glucoside] | 0.00663 | 0.014 |  |  | 
COc1cc2c(=O)oc3c(OC)c(O)cc4c(=O)oc(c1OC)c2c34 [Compound (C), 3,3′,4-tri-O-methylellagic acid] |  |  | higher activity | 4.47 | 13
